Measured values as given in patent US20140142140A1, “PHARMACEUTICAL COMPOSITION FOR NEUROLOGICAL DISORDERS” (priority 2011, published 2014).
Where two headings read alike, the source gives them in different places.

What was measured:
[1] = tested on: patients with reading / learning difficulties; assay: Case reports, Reading Disorder (Example 2); assay type: in vivo, human
Excerpt: They noticed greater contrast when reading. This had reduced their dependency upon spectacles which they had relied on for many years. […] Patient described an unexpected improvement in the clarity and contrast of the words and letters, further commenting on the improvement in their ability to both see and comprehend the words simultaneously. Patient also described a reduction in the instability or movement of the words on the page which had always been experienced when reading. Also further commented on the subjective improvement in vision, with an apparent improved depth perception. […] Patient noticed greater contrast in the text when reading and this had reduced their dependency upon spectacles which they had relied on for many years. […] The patient has been able to sustain employment with considerable effort. Reading had always been effortful and largely unrewarding. Patient had described difficulties tracking along the text being frequently distracted by the lines above and below becoming lost on the page as well as having little recall or comprehension of what they had read.

[2] = tested on: patient with chronic neck pain; assay: Case report, Chronic Pain (Example 12); assay type: in vivo, human
Procedure: A further sublingual dose of phenyloin 1 mg was taken 15 mins after the first dose.

patients with PTSD [3] = assay: Case reports, PTSD (Example 9); assay type: in vivo, human
Excerpt: Patient 9A: Two year history of PTSD & Major Depression, unable to work for nine months. […] Eight months specialist psychiatric treatment including specific PTSD therapy program. […] No history of premorbid ASD or ADHD, possible mild reading difficulties.
Patient 9B: 40 year history of severe PTSD associated with severe re-experiencing phenomena, absence of any family relationships and social withdrawal, anger outbursts, chronic sleep disturbance exaggerated startle reflex and hypervigilance. Comorbid conditions including chronic major depression, alcohol dependence. Attended regular psychiatric treatment for in excess of five years. Treated with a combination of regular outpatient psychotherapy and pharmacotherapy including antidepressants and antipsychotic medications.
Patient 9C: history of PTSD associated with chronic impairment in previous alcohol dependence. Previous psychiatric admissions as a consequence of condition. Long-term antidepressant therapy together with intermittent use of antipsychotic medication.

patients with PTSD [4] = conditions: cited from earlier work
[5] = tested on: patient with spina bifida, ADHD, learning difficulties; assay: Case report, Spina Bifida (Example 11); assay type: in vivo, human
[6] = tested on: patients with bipolar mood disorder; assay: Case report, Bipolar (Example 8); assay type: in vivo, human
[7] = tested on: patients with autism / ASD / communication disorder; assay: Case reports, Autism and other Pervasive Development Disorders (Example 6); assay type: in vivo, human; conditions: for communication, family relationships, behavioural disturbance: 1 mg daily increased to 3 mg in divided doses daily
Excerpt: Patient 6A: Adult, diagnosed in childhood with autism and ADHD. A long history of behavioural disturbance with frequent episodes of violence despite treatment with high-dose antipsychotic medication. […] The high-dose antipsychotic medication has been reduced without any associated loss of recent benefit. […] A history of behavioural disturbance and educational impairment. […] Patient 6C was an adult, diagnosed in childhood with autism and ADHD with a history of behavioural disturbance and educational impairment. […] Patient 6D: Adult, diagnosed in childhood with autism, ADHD and antisocial personality traits. […] Patient C's conversation became more appropriate and consistent together with reported improvements in significant relationships. […] Patient 6E was an adult, diagnosed with communication disorder and major depression. […] Patient 6F was an adult with ASD. […] The patient's conversation became more appropriate and consistent and improvements in significant relationships were reported. A reduction in the reliance on alcohol to alleviate anxiety in social situations was observed. […] Sodium valproate was withdrawn and improvement was noted. […] Patient 6G was as adult, diagnosed in childhood with ASD. […] Sodium valproate was withdrawn. […] This has also been associated with improvements in reading and verbal understanding. These benefits have been sustained in some situations for three years. Although difficult to be objective, there seems to be good evidence of ongoing improvement. […] Improvements in coordination, in fine and gross motor control have been reported and improvement in gait which frequently is a significant issue for individuals with autistic disorders.

[8] = tested on: patients with schizophrenia; assay: Case reports, Schizophrenia (Example 7); assay type: in vivo, human
Excerpt: Patient 7A: Adult, initially diagnosed with schizophrenia in adolescence. Long history of impairment with predominant paranoid delusions controlled with antipsychotic medication although still experiencing significant relapses despite consistent adherence to the pharmacotherapy regime. Significant social impairment, unable to sustain employment and requires support. Prominent negative symptoms and social deficits, unable to sustain eye contact when speaking. Speech slow, effortful and fatiguing. […] Prosody and rate of speech both improved. Patient 7B: Adult initially diagnosed with schizophrenia during adolescence, following many years of prominent positive symptoms with severe behavioural disturbances and violence requiring periods of hospitalisation. Patient has never been able to sustain employment and requires significant social support to maintain functioning. Prominent thought disorder and general social disengagement. […] Able to sustain and enjoy social interaction in a sheltered workshop which had never occurred previously.

[9] = cited from earlier work
[10] = tested on: mood stabilisation or epileptic symptoms or events; conditions: per day; cited from earlier work

O=C1NC(=O)C(c2ccccc2)(c2ccccc2)N1 [phenyloin, 5,5-diphenylhydantoin]
visual acuity / contrast when reading ([1]; Patient 2A, 1 mg daily): visual acuity had appeared to improve | benefits at a higher dose ([1]; Patient 2A): not sustained at a higher dose | reading, pseudo word component of WAIT ([1]; Patient 2B, 1 mg sub lingual dose): improved ability to read | benefits at increased dose ([1]; Patient 2B, dose increased to 50 mg): beneficial effects were lost | visual acuity / contrast in the text when reading ([1]; Patient 2C, 1 mg daily): visual acuity had appeared to improve | benefits at a higher dose ([1]; Patient 2C): not sustained at a higher dose | ability to read ([1]; Patient 2D, 0.5 mg dose): significant improvement in their ability to read with less effort | freedom of movement without pain ([2]; additional sublingual dose 1 mg on top of 3 mg modified release): further acute improvement in the freedom of movement without pain | control of chronic pain on maintenance ([2]; daily dose 3 mg modified release capsule): control of the chronic pain was maintained | duration of relief ([2]; sublingual 1 mg): approximately 10 min | vision during relief ([2]; sublingual 1 mg): enhancement in their vision | intensity of the pain after dose ([2]; sublingual 1 mg, from 10/10 (most severe) before dose): 5/10 | invasive and distressing nature of cervical pain ([2]; ultra low dose): reduced with unexpected efficacy and rapidity | duration improvements maintained (patients with PTSD [3]; Patient 9A): over three months | time to reported improvements (patients with PTSD [3]; Patient 9A, 2 mg daily): ≤ 24 h | efficacy after dose change (patients with PTSD [3]; Patient 9A, dose reduced to 1 mg and increased to 4 mg): reduction in efficacy | overall improvement described (patients with PTSD [3]; Patient 9B, low dose): 50% | most stable and efficacious dose (patients with PTSD [3]; Patient 9C): 0.5 mg daily | stable improvements (patients with PTSD [3]; Patient 9C, 0.5 mg daily): reduction of intrusive and negative thoughts • Enhanced interpersonal communication • Reduced effort of reading • Enhanced quality of sleep | adverse effects (patients with PTSD [3]; Patient 9C, 3 mg): became irritable and experienced word finding difficulties | intrusive thoughts, mood stability and concentration (patients with PTSD [3]; Patient 9C, 3 mg): initial improved ability to dismiss and ignore distressing, intrusive thoughts | functioning during complete withdrawal (patients with PTSD [3]; Patient 9C, periods of complete withdrawal): return to their pre-phenyloin functioning including a worsening of their symptoms of PTSD | functional capacity and symptoms of PTSD (patients with PTSD [3]; patients with PTSD, Ultra low dose): significant improvements in functional capacity as well as a reduction in the symptoms of PTSD | increase in right brain volume (patients with PTSD [4]; 300 mg per day in three doses, up to 400 mg/day, p<0.05): 6% | improvements in memory and cognition (patients with PTSD [4]; 300 to 400 mg/day): did not achieve statistical significance | duration of sustained improvements ([5]; Patient 11A): over 12 months | social interaction, conversation, reading aloud, fine motor control and handwriting ([5]; Patient 11A (on low dose methylphenidate), sublingual dose 1 mg): significant improvement | dose associated with optimal response ([5]; Patient 11A, daily in two divided doses): 1.5 mg | efficacy after dose increase ([5]; Patient 11A, dose increased to 2 mg): loss of efficacy | function ([6]; Patient 8A, bipolar mood disorder, compounded 2 mg capsule): significant improvement in function | improvements noted ([6]; Patient 8A, 2 mg capsule): enhanced organisation and planning • reduced effort required for social interaction • enhanced clarity of thought • a sense of being psychologically more normal | clinical effect of a much higher dose ([6]; patients with bipolar spectrum disorders, much higher dose): good effect | executive functioning ([6]; some patients with bipolar mood disorder, very low dose added): significant improvement in their executive functioning | social interaction and conversation ([7]; Patient 6A, autism and ADHD, single test dose sublingual 1 mg): immediate improvement noted in their ability to socially interact and sustain limited conversation | social interaction, home and day respite centre ([7]; Patient 6A, 4 mg sustained release daily): improvement was consistently noted | behaviour after withdrawal ([7]; Patient 6A, withdrawal and recommencement): return of the behavioural disturbance which abated on recommencement | communication, family relationships, behavioural disturbance ([7]; Patient 6B): sustained improvement in communication and family relationships together with a reduction in behavioural disturbance | improvements at a higher dose or withdrawn ([7]; Patient 6B): Improvements were lost | communication, family relationships, behavioural disturbance ([7]; Patient 6C): sustained improvement in communication and family relationships together with a reduction in behavioural disturbance | improvements at a higher dose or withdrawn ([7]; Patient 6C): improvements were lost | behaviour, verbal and non-verbal communication ([7]; Patient 6D, 2 mg daily): Significant improvement in behaviour, verbal and non-verbal communication | benefit of increased dose ([7]; Patient 6D, 4 mg): No additional benefit | non-verbal and verbal communication ([7]; autistic spectrum and social communication disorders, Ultra low dose, frequently below 5 mg): frequent instant improvement in both their non-verbal and verbal communication | duration of sustained benefits in some situations ([7]; low dose): three years | symptoms of Social Communication Disorder ([7]; ultra low dose): significant improvements in many patients | communication, prosody and rate of speech ([8]; Patient 7A (on antipsychotic medication), 2 mg daily): significant improvement in ability to communicate with less effort | speech and reading aloud a standard text ([8]; Patient 7B, 1 mg sublingual): significant improvement in speech and ability to read aloud a standard text | effects when withdrawn ([8]; Patient 7B, phenyloin withdrawn): Positive effects abated | half-life ([9]; high doses): prolonged | metabolism ([9]; in vivo): almost completely metabolized in the liver | time for plasma concentration to reach steady-state level ([9]; in vivo): 1-2 weeks | half-life ([9]; low doses): less than 20 h | Minimum typical dose/day effective for mood stabilisation or treatment of epileptic symptoms or events [10]: 200 mg
